Values quoted from earlier work as cited in patent US20110200683A1, “Hydrogen peroxide solution producing first aid substance, packaging, and treatment” (Piper Medical, Inc, priority 2010, published 2011).

Tests used:
[1] = temperatures above 50° C
[2] = in water

stability [1]: relatively stable
solubility sufficient to create a hydrogen peroxide concentration [2]: ≥ 3%
SMILES: NC(N)=O.OO [percarbamide]
